How the values were obtained:
[1] = for mass density: 293 K, 101.33 kPa, Pycnometric method; for vapor or sublimation pressure: Transpiration method; for Normal melting temperature: DTA
[2] = Molar enthalpy of transition or fusion; details: DSC

CC(C)(C)NC(=O)Nc1ccccc1 [1-tert-butyl-3-phenylurea]
Details | Molar enthalpy of transition or fusion, Crystal 1 [kcal/mol] | Molar enthalpy of transition or fusion, Crystal 2 [kcal/mol] | Normal melting temperature, Crystal 1 [°C] | Triple point temperature, Crystal 2, DSC [K] | mass density, Crystal 2 [kg/m3]
[1] | – | – | 168 | 432 | 1062
[2] | 5.9 | 1.86 | – | – | –

[1], Crystal 2
Details | vapor or sublimation pressure [kPa]
385.9 K | 0.00162
390 K | 0.00233
392.4 K | 0.00294
396.3 K | 0.00405
400.2 K | 0.00579
403.3 K | 0.00737
406.2 K | 0.00973
410.5 K | 0.01397
416.2 K | 0.02115
420.6 K | 0.03129
424 K | 0.03902
426.6 K | 0.0483
428.8 K | 0.05831
430.5 K | 0.066

CC(C)NC(=O)Nc1ccccc1 [1-isopropyl-3-phenylurea]
Crystal
Details | Molar enthalpy of transition or fusion [kcal/mol] | Normal melting temperature [°C] | mass density [kg/m3]
[1] | – | 156.2 | 1050
[2] | 5.35 | – | –

[1], Crystal
Details | vapor or sublimation pressure [kPa]
393.3 K | 0.00201
396.2 K | 0.00261
400.3 K | 0.00373
403.2 K | 0.00478
406.5 K | 0.00631
409.6 K | 0.00835
411.7 K | 0.00986
413.7 K | 0.01159
416.5 K | 0.01436
419.6 K | 0.01814
421.5 K | 0.02123
423.8 K | 0.02493

NC(=O)Nc1ccccc1 [N-phenylurea]
[1], Crystal
Details | vapor or sublimation pressure [kPa]
386 K | 0.00061
391.7 K | 0.00103
396.2 K | 0.00154
399.5 K | 0.00209
402.4 K | 0.00275
406.2 K | 0.00394
408.3 K | 0.0047
411.5 K | 0.00607
413.6 K | 0.00714

From the NIST ThermoML archive (doi:10.1016/j.jct.2019.01.022)
